Consider one compound from US20160051527A1, “METHODS AND KITS FOR TREATING AND CLASSIFYING INDIVIDUALS AT RISK OF OR SUFFERING FROM A NEUROLOGICAL DYSFUNCTION OR DISORDER” (priority 2013, published 2016).

In the assay the test system is patients with a single variant in the ChAT gene (340L>F or 510R>Q). Nature of the assay: Clinical response to medications prior to sequencing in patients carrying a ChAT gene variant. The following applies: 2/2 patients, dampens opposing sympathetic activity.

Consider `CC(C)NCC(O)COc1cccc2ccccc12` (stereo not shown) [propranolol], for which the clinical response result was “clinical improvement”.
